Where “and” joins values, the source holds several entries; their conditions need not be identical. Equal values may be shown once.
How the values were obtained:
NR1111/NR2A [1] = target: T1, NR1111/NR2A (Rattus norvegicus, UniProt P35439+Q00959); settings: NR1111/NR2A
NR1101/NR2A = NR1101/NR2A (Rattus norvegicus, UniProt P35439+Q00959); settings: NR1101/NR2A
NR1001/NR2A = NR1001/NR2A (Rattus norvegicus, UniProt P35439+Q00959); settings: NR1001/NR2A
NR1100/NR2A = NR1100/NR2A (Rattus norvegicus, UniProt P35439+Q00959); settings: NR1100/NR2A
NR1010/NR2A = NR1010/NR2A (Rattus norvegicus, UniProt P35439+Q00959); settings: NR1010/NR2A
NR1/NR2A (NR1100) = NR1/NR2A (NR1100) (Rattus norvegicus, UniProt P35439+Q00959)
NR1/NR2B (NR1100) = NR1/NR2B (NR1100) (Rattus norvegicus, UniProt P35439+Q00960)
NR1/NR2C (NR1100) = NR1/NR2C (NR1100) (Rattus norvegicus, UniProt P35439+Q00961)
Chain of NR1/NR2C (NR1100) (Q00961 20-1237, other chains not shown): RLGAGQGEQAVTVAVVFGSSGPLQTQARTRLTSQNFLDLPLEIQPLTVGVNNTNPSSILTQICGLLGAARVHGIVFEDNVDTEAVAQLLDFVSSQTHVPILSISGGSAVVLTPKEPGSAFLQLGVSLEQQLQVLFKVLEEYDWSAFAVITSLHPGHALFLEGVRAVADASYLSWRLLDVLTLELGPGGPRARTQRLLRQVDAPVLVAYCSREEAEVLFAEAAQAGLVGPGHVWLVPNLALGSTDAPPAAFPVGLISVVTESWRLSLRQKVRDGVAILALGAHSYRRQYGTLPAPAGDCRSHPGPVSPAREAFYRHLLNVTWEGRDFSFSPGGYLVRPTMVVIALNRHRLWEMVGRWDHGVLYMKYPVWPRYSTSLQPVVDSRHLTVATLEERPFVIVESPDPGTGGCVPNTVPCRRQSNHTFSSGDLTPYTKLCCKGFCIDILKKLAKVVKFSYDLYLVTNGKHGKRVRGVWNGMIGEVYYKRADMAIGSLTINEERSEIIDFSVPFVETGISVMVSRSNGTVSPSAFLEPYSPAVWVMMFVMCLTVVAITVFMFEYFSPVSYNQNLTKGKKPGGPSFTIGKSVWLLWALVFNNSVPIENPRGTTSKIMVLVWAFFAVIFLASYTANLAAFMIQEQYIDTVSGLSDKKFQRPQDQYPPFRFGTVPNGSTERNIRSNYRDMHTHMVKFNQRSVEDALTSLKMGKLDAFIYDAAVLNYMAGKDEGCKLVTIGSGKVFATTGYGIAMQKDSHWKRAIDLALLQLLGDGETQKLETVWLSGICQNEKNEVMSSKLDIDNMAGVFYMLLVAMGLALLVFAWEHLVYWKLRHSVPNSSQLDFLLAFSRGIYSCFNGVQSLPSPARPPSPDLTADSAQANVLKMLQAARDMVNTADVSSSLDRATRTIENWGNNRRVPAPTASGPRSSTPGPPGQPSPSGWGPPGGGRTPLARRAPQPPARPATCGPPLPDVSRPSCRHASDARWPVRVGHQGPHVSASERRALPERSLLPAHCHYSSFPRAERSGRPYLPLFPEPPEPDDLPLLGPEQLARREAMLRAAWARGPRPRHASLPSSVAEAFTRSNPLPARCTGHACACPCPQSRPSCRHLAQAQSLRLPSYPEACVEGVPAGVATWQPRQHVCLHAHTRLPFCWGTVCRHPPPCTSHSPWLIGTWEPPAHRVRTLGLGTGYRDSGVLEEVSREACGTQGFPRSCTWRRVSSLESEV
Description: (§4) Plasmids containing the NR1100 (NR1G) and NR2A cDNA inserts were kindly provided by Dr. Nakanishi (Kyoto University Faculty of Medicine, Kyoto, Japan). Plasmids containing the NR2B, NR2C and NR2D cDNA inserts were kindly provided by Dr. P. Seeburg (Heidelberg University, Heidelberg, Germany). Plasmids were linearized with appropriate restriction enzyme prior to in vitro transcription using the Message Machine kit (Ambion, Inc., Austin, Tex.).
(§5) Female, oocyte-positive Xenopus laevis frogs were purchased from Xenopus I (Dexter, Mich.). […] Oocytes were injected with 50 nL of RNA solutions using an electronic microinjector (Drummond Inc., Broomall, Pa.). […] The injected oocytes were used for experiments following 1-5 days of incubation in Barth's solution at 18-20° C.
(§6) The microelectrodes were fabricated from borosilicate glass capillaries with a programmed puller (Sutter Instrument Co., Calif.). Microelectrode resistance was 1-3 MΩ_when filled with 3 M KCl.
(§7) Except where otherwise stated, oocytes were clamped at a holding potential of −70 mV during data acquisition. The membrane current was filtered at 500 Hz and sampled at 100 Hz. Drugs were applied using a gravity-driven external perfusion system. The working volume of the recording chamber was 30 μl and the rate of the perfusion was 50 μl/sec. The drug application lasted 10 sec and was followed by 60 s wash. Data acquisition and external perfusion were controlled using custom-written software implemented in the SuperScope II development environment (GW Instruments, Mass.). All experiments were performed at room temperature of 22-24° C. Peak or steady-state current measurements were normalized and expressed as a fraction of the peak or steady-state control current measurements, which were performed before and after application of every single concentration of agonists or steroids.
(§8) Concentration-response data were analyzed by nonlinear regress ion using the logistic equation Response=Emax/(1+(EC50/c)^nH), where c is concentration, Emaxis the maximum response, nHis the Hill coefficient. The data are presented as mean±SEM. EC50values are averaged as logarithms (De Lean et al., Am. J. Physiol. 235: E97-E102 (1978))±the SEM of the log EC50. […] The pooled data were simultaneously fitted to the logistic equation, either with Emax and EC50 constrained to be identical in the presence and absence of PS, or allowing one or both to vary independently. […] This was regarded as indicating a significant treatment effect of PS, but the change in EC50and Emaxwas not considered significant. […] No attempt was made to test the generally small changes in nHfor statistical significance.

NR1/NR2D (NR1100) = NR1/NR2D (NR1100) (Rattus norvegicus, UniProt P35439+Q62645)
Chain of NR1/NR2D (NR1100) (Q62645 28-1323, other chains not shown): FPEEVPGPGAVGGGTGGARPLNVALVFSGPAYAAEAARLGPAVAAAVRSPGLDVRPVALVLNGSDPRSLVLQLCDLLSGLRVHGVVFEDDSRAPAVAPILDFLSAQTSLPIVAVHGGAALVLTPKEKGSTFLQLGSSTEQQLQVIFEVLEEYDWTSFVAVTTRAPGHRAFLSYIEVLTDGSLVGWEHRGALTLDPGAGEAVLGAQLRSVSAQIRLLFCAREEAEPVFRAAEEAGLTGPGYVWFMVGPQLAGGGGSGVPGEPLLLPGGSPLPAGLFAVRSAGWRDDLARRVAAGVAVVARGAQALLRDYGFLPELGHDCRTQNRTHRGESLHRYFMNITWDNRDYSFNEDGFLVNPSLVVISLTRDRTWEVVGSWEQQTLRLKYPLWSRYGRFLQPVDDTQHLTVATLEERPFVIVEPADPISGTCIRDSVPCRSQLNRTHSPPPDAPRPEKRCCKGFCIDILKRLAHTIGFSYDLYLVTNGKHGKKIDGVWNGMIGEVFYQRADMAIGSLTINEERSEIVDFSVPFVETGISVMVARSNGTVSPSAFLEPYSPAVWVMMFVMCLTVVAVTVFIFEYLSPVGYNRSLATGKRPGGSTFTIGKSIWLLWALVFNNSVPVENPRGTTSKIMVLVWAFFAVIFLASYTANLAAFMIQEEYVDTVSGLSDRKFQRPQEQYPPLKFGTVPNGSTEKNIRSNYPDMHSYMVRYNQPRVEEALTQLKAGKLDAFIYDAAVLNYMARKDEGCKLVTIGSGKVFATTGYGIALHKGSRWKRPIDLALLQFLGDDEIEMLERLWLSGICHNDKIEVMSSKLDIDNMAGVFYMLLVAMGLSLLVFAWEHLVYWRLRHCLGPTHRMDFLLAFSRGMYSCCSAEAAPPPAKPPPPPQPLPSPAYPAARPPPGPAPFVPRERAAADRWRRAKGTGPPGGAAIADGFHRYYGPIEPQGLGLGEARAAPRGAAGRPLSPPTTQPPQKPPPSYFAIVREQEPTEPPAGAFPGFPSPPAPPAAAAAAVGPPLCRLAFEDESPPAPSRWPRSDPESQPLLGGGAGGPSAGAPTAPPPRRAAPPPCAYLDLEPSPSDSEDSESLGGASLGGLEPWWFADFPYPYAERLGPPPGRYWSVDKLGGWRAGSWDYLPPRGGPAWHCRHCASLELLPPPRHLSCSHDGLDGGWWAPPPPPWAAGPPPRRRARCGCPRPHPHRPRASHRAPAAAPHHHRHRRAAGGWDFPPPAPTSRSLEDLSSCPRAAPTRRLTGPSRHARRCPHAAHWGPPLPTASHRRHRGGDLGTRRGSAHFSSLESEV
Description: as §4, §5, §6, §7, §8

Penta-Mutant/NR2A = Penta-Mutant/NR2A (Rattus norvegicus, UniProt P35439+Q00959, K193A/K202A/R187A/R233A/R252A); assay: NMDA-induced currents, Xenopus oocytes, Example 5; settings: 100 uM PS; 300 uM NMDA; 50 uM Glycine
Description: Plasmids were linearized with appropriate restriction enzyme prior to in vitro transcription using the Message Machine kit (Ambion, Inc., Austin, Tex.).
Female, oocyte positive Xenopus laevis frogs were purchased from Xenopus I (Dexter, Mich). […] Oocytes were injected with 50 nL of RNA solutions using an electronic microinjector (Drummond Inc., Broomall, Pa.). […] The injected oocytes were used for experiments following 1-5 days of incubation in Barth's solution at 18-20° C.
The microelectrodes were fabricated with a programmed puller (Sutter Instrument Co., Calif.) from borosilicate glass capillaries and were filled with 3 M KCl solution. The resistance of filled microelectrodes was in the range of 1-3 MΩ. […] If not mentioned otherwise, during data acquisition oocytes were clamped at a holding potential of −70 mV. The membrane current was filtered at 500 Hz and sampled at 100 Hz. Drugs were applied using a gravity driven external perfusion system. The working ,volume of the recording chamber was 30 μl and the rate of the perfusion was 50 μl/sec. The drug application lasted 10 sec and was followed by a 60 sec wash. The data acquisition and external perfusion control were done using the SuperScopeII software package (GW Instruments, Mass.). All experiments were performed at room temperature (22-24° C.). Peak or steady-state current measurements were normalized and expressed as a fraction of the peak or steady-state control current measurements, which were performed before and after application of every single consentration of agonist or steroid. […] The data are presented as mean±S.E.M. with number of experiments in parentheses.

NR1011/NR2A = NR1011/NR2A (Rattus norvegicus, UniProt P35439+Q00959); assay: NMDA-induced currents of NR1 splice variants, Xenopus oocytes, Example 4; assay type: cell-based; parameters: expressed in transfected cells; host or cells: Xenopus oocytes injected with NR1011 and NR2A mRNA; settings: 100 μM PS; for maximum relative current (MRC) / percentage potentiation of the maximum NMDA response: NR1011/2A
Chain of NR1011/NR2A (Q00959 23-1464, other chains not shown): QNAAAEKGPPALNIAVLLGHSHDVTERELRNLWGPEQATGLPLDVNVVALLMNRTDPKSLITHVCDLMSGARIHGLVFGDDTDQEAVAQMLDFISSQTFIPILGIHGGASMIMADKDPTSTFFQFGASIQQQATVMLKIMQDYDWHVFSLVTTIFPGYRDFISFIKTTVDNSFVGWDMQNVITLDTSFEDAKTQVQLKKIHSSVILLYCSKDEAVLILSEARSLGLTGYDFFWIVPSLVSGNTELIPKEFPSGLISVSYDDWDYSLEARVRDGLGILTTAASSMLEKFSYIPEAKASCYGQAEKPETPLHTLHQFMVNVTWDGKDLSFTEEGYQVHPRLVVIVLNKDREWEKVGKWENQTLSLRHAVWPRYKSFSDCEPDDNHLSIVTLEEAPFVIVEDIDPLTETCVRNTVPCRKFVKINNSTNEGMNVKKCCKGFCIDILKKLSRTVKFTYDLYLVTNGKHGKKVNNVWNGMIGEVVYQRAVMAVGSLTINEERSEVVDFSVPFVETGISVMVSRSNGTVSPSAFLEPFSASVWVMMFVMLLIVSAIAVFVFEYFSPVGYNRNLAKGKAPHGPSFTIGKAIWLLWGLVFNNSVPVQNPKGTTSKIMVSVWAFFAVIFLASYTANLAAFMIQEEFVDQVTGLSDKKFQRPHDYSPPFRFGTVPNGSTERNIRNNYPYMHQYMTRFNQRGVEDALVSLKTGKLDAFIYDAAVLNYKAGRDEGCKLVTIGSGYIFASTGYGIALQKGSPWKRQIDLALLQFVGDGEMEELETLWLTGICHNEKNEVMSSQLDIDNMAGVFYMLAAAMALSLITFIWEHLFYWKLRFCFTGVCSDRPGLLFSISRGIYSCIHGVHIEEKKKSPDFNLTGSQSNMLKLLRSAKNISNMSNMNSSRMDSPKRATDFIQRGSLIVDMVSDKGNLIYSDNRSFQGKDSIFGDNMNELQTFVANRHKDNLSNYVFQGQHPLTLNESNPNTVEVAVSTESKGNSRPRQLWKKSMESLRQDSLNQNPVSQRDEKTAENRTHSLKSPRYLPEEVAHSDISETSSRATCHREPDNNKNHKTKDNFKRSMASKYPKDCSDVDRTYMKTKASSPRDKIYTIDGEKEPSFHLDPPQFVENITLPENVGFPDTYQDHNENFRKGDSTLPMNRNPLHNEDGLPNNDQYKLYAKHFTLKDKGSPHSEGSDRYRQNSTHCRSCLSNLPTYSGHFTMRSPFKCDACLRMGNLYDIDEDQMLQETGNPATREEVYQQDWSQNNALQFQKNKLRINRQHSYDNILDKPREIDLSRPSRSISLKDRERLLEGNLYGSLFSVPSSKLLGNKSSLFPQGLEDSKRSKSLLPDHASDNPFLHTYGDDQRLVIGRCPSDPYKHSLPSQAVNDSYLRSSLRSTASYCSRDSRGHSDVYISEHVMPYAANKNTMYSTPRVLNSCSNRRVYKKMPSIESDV
Description: (§1) Overnight cultures (500 ml) of transformed bacterial cells were prepared in order to grow sufficient quantities for maxiprep isolation of the plasmid CDNA. Maxipreps were done using a Sorvall RC-5B ultracentrifuge, Qiagen columns and cDNA was quantitated with spectrophotometry (OD260 and OD260/ OD280 ratio). The resulting plasmid cDNA was linearized by digestion with an appropriate restriction enzyme that cleaves distal to the cDNA insert (XhoI for NR2A or NotI for NR1100, NR1000, NR1111, NR1011, NR1101, NR1001). […] The samples were stored at −20° C. until use.
(§2) In vitro transcription was performed using the Ambion mMessage mMachine kit with T7 (NR1100, NR1000, NR1111, NR1011, NR1101, NR1001) RNA polymerase. The reaction was assembled on ice and allowed to incubate at 37° C. for 1-2 hr. The resulting mRNA was precipitated (reaction termination) using lithium chloride/5 mM EDTA solution and dissolved in RNase-free H2O. The concentration (OD260) and OD260/OD280 ratio (should be more than 1.5) was determined by spectrophotometer. The yield of mRNA was generally 15-30 μg. mRNA was stored at −80° C. until use.
(§3) Intracellular recording microelectrodes were fabricated from 100 μl borosilicate glass disposable micropipettes using a 2-step protocol on a standard horizontal Flaming-Brown micropipette puller.

NR1111/NR2A [2] = target: T1, NR1111/NR2A; assay: as above; assay type: cell-based; parameters: expressed in transfected cells; host or cells: Xenopus oocytes injected with NR1111 and NR2A mRNA; settings: 100 μM PS; for maximum relative current (MRC) / percentage potentiation of the maximum NMDA response: NR1111/2A
Description: as §1, §2, §3

[3] = 200 μM NMDA+10 μM glycine, pH 7.5

## pregnenolone sulfate [PS]
NR1111/NR2A [1]
  Maximum potentiation of NMDA-induced current by PS: 1.51±0.04 fold
  PS nHill: 1.28 ± 0.19
NR1111/NR2A [1]; curve 1+Emax/(1+(EC50/c)n)
  PS Emax: 0.51 ± 0.04
NR1101/NR2A
  Maximum potentiation of NMDA-induced current by PS: 1.66±0.10 fold
  PS Emax: 0.66 ± 0.10
  PS nHill: 1.52 ± 0.24
NR1001/NR2A
  Maximum potentiation of NMDA-induced current by PS: 2.19±0.09 fold
  PS Emax: 1.19 ± 0.09
  PS nHill: 1.14 ± 0.10
NR1100/NR2A
  Maximum potentiation of NMDA-induced current by PS: 1.67±0.07 fold
  PS Emax: 0.67 ± 0.07
  PS nHill: 1.33 ± 0.08
NR1010/NR2A
  PS Emax: 1.03 ± 0.09
  PS nHill: 1.30 ± 0.18
NR1/NR2A (NR1100)
  PS nH: 1.33 ± 0.08
NR1/NR2A (NR1100); 80 μM NMDA, 10 μM glycine
  PS Emax (% Change): +167 ± 7%
NR1/NR2A (NR1100); 100 μM PS, 80 μM NMDA
  enhancement of NMDA plus glycine current: 62±8%
NR1/NR2B (NR1100)
  PS nH: 1.42 ± 0.11
NR1/NR2B (NR1100); 100 μM PS, […] μM NMDA
  enhancement of NMDA-induced current: 78±9%
NR1/NR2B (NR1100); […] μM NMDA, 10 μM glycine
  PS Emax (% Change): +202 ± 10%
NR1/NR2C (NR1100)
  fold less potent as inhibitor of NR1/NR2C and NR1/NR2D than in potentiating NR1/NR2A and NR1/NR2B: 3.4- to 5.6 fold
NR1/NR2C (NR1100); NR1/NR2C
  PS nH: 1.32 ± 0.29
NR1/NR2C (NR1100); NR1/NR2C, 100 μM PS, […] μM NMDA
  inhibition of NMDA-induced current: 35±3%
NR1/NR2C (NR1100); NR1/NR2C, […] μM NMDA, 10 μM glycine
  PS Emax (% Change): −63 ± 9%
NR1/NR2D (NR1100)
  PS nH: 1.16 ± 0.08
NR1/NR2D (NR1100); 10 μM NMDA, 10 μM glycine
  PS Emax (% Change): −70 ± 6%
NR1/NR2D (NR1100); 100 μM PS, 10 μM NMDA
  inhibition of NMDA response: 26±1%
Penta-Mutant/NR2A
  reduction in PS potentiation of the NMDA response vs wild type: 40% and 47.5±8.80%
NR1011/NR2A; [3]
  maximum relative current (MRC): 1.41
NR1011/NR2A; pH 6.5
  maximum relative current (MRC): 2.24
NR1011/NR2A; pH 7.5
  percentage potentiation of the maximum NMDA response: 50%
NR1011/NR2A; pH 8.5
  maximum relative current (MRC): 1.35
  percentage potentiation of the maximum NMDA response: 24%
NR1011/NR2A; NR1011/NR2A
  difference in mrc between pH=6.5 and pH=7.5: 1.7 fold
NR1111/NR2A [2]; [3]
  maximum relative current (MRC): 2.28
NR1111/NR2A [2]; pH 6.5
  maximum relative current (MRC): 4.06
NR1111/NR2A [2]; pH 7.5
  percentage potentiation of the maximum NMDA response: 103%
NR1111/NR2A [2]; pH 8.5
  maximum relative current (MRC): 1.59 and 1.58
  percentage potentiation of the maximum NMDA response: 47%
NR1111/NR2A [2]; NR1111/NR2A
  difference in mrc between pH=6.5 and pH=7.5: 1.8 fold
  difference in mrc between pH=7.5 and pH=8.5: 1.4 fold
